Our source for the IC50 values is ChEMBL document CHEMBL3217681, “Phosphofructokinase: structural and functional aspects and design of selective inhibitors” (Medchemcomm, 2012).

Each structure is given as a SMILES string. pIC50: −log10 of the molar value.

This experiment addresses T1, ATP-dependent 6-phosphofructokinase (Trypanosoma brucei, UniProt O15648).
T1 sequence (O15648 whole entry): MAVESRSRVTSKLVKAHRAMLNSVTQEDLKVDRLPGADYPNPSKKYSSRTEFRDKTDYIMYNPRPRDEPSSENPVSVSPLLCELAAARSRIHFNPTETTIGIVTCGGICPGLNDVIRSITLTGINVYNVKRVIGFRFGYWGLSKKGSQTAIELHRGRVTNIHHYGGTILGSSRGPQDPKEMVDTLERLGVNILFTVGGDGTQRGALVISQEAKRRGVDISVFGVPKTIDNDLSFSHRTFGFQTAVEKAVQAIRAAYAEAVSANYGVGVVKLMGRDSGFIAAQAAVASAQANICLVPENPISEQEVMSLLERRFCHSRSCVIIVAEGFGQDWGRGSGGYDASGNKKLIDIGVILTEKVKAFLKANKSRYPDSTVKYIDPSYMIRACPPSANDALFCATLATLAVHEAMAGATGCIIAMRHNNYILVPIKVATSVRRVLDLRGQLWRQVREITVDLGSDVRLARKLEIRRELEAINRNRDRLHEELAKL
The experiment in a line: Inhibition of Trypanosoma brucei phosphofructokinase.

Usually pIC50 stands for the IC50 on a negative log10 scale, so that one unit is a factor of ten. Compound `OC[C@H]1O[C@H](CNc2ccc3ccccc3c2)[C@@H](O)[C@@H]1O` had a pIC50 of 3.05.

With `OC[C@H]1O[C@H](CNc2ccc(Cl)c(Cl)c2)[C@@H](O)[C@@H]1O`, the negative logarithm of the IC50 (pIC50) was 3.39.
